Results taken from patent US20110021631A1, “Method of preparing stabilized pharmaceutical compositions comprising active ingredients susceptible to conversion to alternate polymorph forms” (LEK PHARMACEUTICALS D.D., priority 2004, published 2011).
Entries after “also recorded” stand apart in the source; their conditions may differ.

How the values were obtained:
[1] = forms as named in WO 01/43723; cited from earlier work
[2] = Polymorph analysis by X-ray powder diffraction (XRPD) after wet granulation / mixing of pravastatin sodium form LEK; assay type: physicochemical
Protocol: References to 2Θ values are to those measured using CuKα radiation. Samples are measured on apparatus Siemens D-5000 by reflex technique at two conditions: • a. Samples with high amount of pravastatin sodium (more than 30%): CuKα radiation, range from 2° to 37° 2Θ, step 0.04° 2Θ, integration time 1 second, slots V20 and 0.6 mm. • b. Samples with low amount of pravastatin sodium (less than 30%): CuKα radiation, range from 3° to 12° 2Θ, step 0.04° 2Θ, integration time 15 second, slots V20 and 0.6 mm.

| conversion on granulation with granulating liquid comprising a binder (PVP) ([2]; PVP in ethanol, in some experiments) | precrystallization of dry mixture ([2]; dry mixture of pravastatin sodium and microcrystalline cellulose, 2 hours at 60° C.) | stability of Lek form in wet granulation ([2]; mass ratio pravastatin sodium to microcrystalline cellulose higher or equal to 1:1 and pravastatin sodium to ethanol higher or equal to 1:1, preferably 1:0.5) | precrystallization in wet granulation ([2]; pravastatin sodium:microcrystalline cellulose = 1:0.5, pravastatin sodium and ethanol 1:0.4) | polymorph form in the presence of a high amount of microcrystalline cellulose and granulating liquid ([2]; wet granulation with ethanol) | SMILES | polymorph conversion by treating with alcohol [1] | conversion to another polymorph form on granulation with alcohol alone ([2]; alcohol (absolute ethanol or aqueous ethanol) as granulating liquid, absence of other ingredients) |
| --- | --- | --- | --- | --- | --- | --- | --- |
|  |  |  |  |  | CC[C@H](C)C(=O)O[C@H]1C[C@H](O)C=C2C=C[C@H](C)[C@H](CC[C@@H](O)C[C@@H](O)CC(=O)O)[C@H]21 [pravastatin sodium form D, pravastatin sodium] | convert to forms A, H, H1, I, J, K |  |
| partial conversion | does not cause any precrystallization | stable | no precrystallization occurs | precrystallizes to form D | CC[C@H](C)C(=O)O[C@H]1C[C@H](O)C=C2C=C[C@H](C)[C@H](CC[C@@H](O)C[C@@H](O)CC(=O)O)[C@H]21 [pravastatin sodium] |  | does not convert to any other polymorph form; also recorded: does not cause the precrystallization |
